Laboratory results reported in patent US20210023065A1, “AMPHIPHILIC THIOL COMPOUNDS AND USES THEREOF” (THE REGENTS OF THE UNIVERSITY OF CALIFORNIA, priority 2018, published 2021).

Legend:
endogenous HRas = target: T1, endogenous HRas (Homo sapiens, UniProt P01112); assay: Acyl resin-assisted capture detection of HRas palmitoylation in HeLa cells; format: cell-based; details: HeLa cells
T1 construct: endogenous in cells; host or cells: HeLa
Experimental: HeLa cells were grown to confluency in 10 cm plates. Stock solutions of compounds were prepared in DMSO as before and diluted to the final indicated concentration in 5.5 mL of OptiMEM media before adding to cells. Cells were incubated at 37° C. for 20 min and then media removed and 3 mL of HBSS added to each plate. Cells were detached using a cell scraper, pelleted by centrifugation at 1,000 rcf for 5 min and the pellet processed using a CAPTUREome S-Palmitoylated Protein Kit (Badrilla, UK) according to the manufacturer's protocol. Samples were resolved by electrophoresis using 4-20% SDS-polyacrylamide gels (Bio-Rad) under denaturing and reducing conditions. Proteins were then electrotransferred to a PVDF membrane (Bio-Rad). The membrane was blocked with 3% BSA and then subjected to immunoblot analysis using Anti-GTPase HRAS antibody (ab97488) (Abcam), Calnexin Antibody (2433S) (Cell Signaling Technology), Gα(i) Antibody (5290S) (Cell Signaling Technology), SNAP25 Antibody (5308S) (Cell Signaling Technology), Flotillin-2 Antibody (3436S) (Cell Signaling Technology), CD44 Antibody (3570S) (Cell Signaling Technology), Lyric/Metadherin Antibody (14065S) (Cell Signaling Technology), Flotillin-1 Antibody (3253S) (Cell Signaling Technology) and secondary goat anti-rabbit IgG-HRP (sc-2030) (Santa Cruz Biotechnology) or goat anti-mouse IgG HRP (ThermoFisher). Chemiluminescent detection was performed by using SuperSignal West Pico PLUS chemiluminescent substrate (ThermoFisher) according to the manufacturer's instructions.
Assays were performed in 3 biological replicates. Each replicate involved the analysis of 4 to 5 conditions side-by-side. Western blots were analyzed using ImageJ^1. The intensity of the protein band in each cleaved bound fraction (palmitoylated protein fraction) was normalized to the intensity of the corresponding input fraction (total protein fraction). The values within individual S 4 replicates were normalized to the control or vehicle condition and reported as means±SD. An unpaired t test was performed to determine the significance between means.

calnexin = target: T2, calnexin (Homo sapiens, UniProt P27824); assay: Acyl resin-assisted capture detection of calnexin palmitoylation in HeLa cells; format: cell-based; details: 1.25 μmol/10^7 cells, relative to vehicle
T2 construct: we detected the palmitoylation levels of eight known palmitoylated proteins after treatment with 1; endogenous in cells; host or cells: HeLa
T2 sequence (P27824 21-592): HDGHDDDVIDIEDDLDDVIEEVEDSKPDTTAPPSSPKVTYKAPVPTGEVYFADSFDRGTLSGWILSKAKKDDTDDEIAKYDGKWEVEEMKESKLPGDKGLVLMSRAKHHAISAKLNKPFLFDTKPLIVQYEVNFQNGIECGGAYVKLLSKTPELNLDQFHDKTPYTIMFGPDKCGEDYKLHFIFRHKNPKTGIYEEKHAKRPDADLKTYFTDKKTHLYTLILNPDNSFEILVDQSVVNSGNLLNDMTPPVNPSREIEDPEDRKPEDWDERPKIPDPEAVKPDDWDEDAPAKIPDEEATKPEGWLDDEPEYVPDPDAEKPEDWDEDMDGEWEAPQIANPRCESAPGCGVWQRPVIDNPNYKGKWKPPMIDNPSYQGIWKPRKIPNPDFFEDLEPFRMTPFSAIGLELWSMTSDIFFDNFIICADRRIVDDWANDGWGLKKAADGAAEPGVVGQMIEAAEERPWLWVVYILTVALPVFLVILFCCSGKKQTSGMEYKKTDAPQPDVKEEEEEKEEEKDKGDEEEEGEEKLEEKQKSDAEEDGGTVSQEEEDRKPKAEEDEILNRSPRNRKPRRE
Experimental: HeLa cells were grown to confluency in 10 cm plates. Stock solutions of compounds were prepared in DMSO as before and diluted to the final indicated concentration in 5.5 mL of OptiMEM media before adding to cells. Cells were incubated at 37° C. for 20 min and then media removed and 3 mL of HBSS added to each plate. Cells were detached using a cell scraper, pelleted by centrifugation at 1,000 rcf for 5 min and the pellet processed using a CAPTUREome S-Palmitoylated Protein Kit (Badrilla, UK) according to the manufacturer's protocol. Samples were resolved by electrophoresis using 4-20% SDS-polyacrylamide gels (Bio-Rad) under denaturing and reducing conditions. Proteins were then electrotransferred to a PVDF membrane (Bio-Rad). […]
Assays were performed in 3 biological replicates. […] Western blots were analyzed using ImageJ^1. […]

HeLa cells = assay: MS detection of AMD product 4 in HeLa cell lipid extracts; format: cell-based; details: 200 μM 1 with 400 μM TCEP, 20 min
Experimental: HeLa cells were grown to confluency in two 6 cm plates. Once confluent, media was removed and cells washed 1× with HBSS. Stock solutions were prepared as before. From these stocks, solutions of 200 μM 1 (with 400 μM TCEP) or 400 μM TCEP were prepared in OptiMEM media. To each plate was added 3 mL OptiMEM+400 μM TCEP or OptiMEM+200 μM 1 (with 400 μM TCEP). Cells were incubated at 37° C. for 20 min and then media removed and 3 mL of HBSS added to each plate. Cells were detached using a cell scraper, pelleted by centrifugation at 1,000 rcf for 5 min and the pellet subjected to a lipid extraction using the Bligh and Dyer method.^3 Lipid extracts were analyzed for the presence of the AMD product palmityl-N-L-Cys-Oct (4) using reverse phase chromatography on an HP 1100 LC station to a Thermo LCQdeca-MS running in ESI Positive Ion Mode. MS/MS analysis was performed on the [M+H]^+ peak of 4 (m/z 471) then selected reaction monitoring on the fragmentation peak (m/z 130) (FIG. 9).

INCL lymphoblasts = format: cell-based, human
Experimental: INCL lymphoblasts were plated at 100,000 cells/well in 80 μL of OptiMEM in a 96 well plate. Stock organic solutions were prepared as before and then diluted to 5× stock solutions in OptiMEM. 20 μL of the OptiMEM stocks was then added to the appropriate wells to achieve the indicated final concentration of the compound in 100 μL of cell suspension. After a 24 h incubation, 10 μL of WST-1 reagent (Sigma-Aldrich) was added to each well and cells incubated for 1 h at 37° C., 5% CO2. Absorbance measurements were taken using a Satire II plate reader (Tecan) at 440 nm using 690 nm as a reference. The background absorbance of the WST-1 reagent in media was subtracted and cell viability was reported as a percentage of the viability of the non-treated control cells. All conditions were tested in 4 replicate wells and values reported as means±SD.

T1 sequence (P01112 whole entry): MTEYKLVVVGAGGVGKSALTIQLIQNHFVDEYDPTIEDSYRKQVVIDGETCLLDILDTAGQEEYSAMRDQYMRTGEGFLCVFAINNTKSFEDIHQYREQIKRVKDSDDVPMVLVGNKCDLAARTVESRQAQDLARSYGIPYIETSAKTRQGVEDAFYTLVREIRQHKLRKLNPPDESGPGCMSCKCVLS

reduction of palmitoylation level of HRas (endogenous HRas; 1.25 μmol/10^7 cells, relative to vehicle): > 80%
depalmitoylation of HRas in the presence of palmostatin B (PB) (endogenous HRas; 1.25 μmol/10^7 cells, with APT-1/2 inhibitor PB): efficiently depalmitoylated HRas
HRas palmitoylation over a range of concentrations (endogenous HRas; 0.31-1.25 μmol/10^7 cells, 20 min): decreased in a dose-dependent manner
depalmitoylation of HRas (endogenous HRas; 20 min, 1 at 1.25 μmol/10^7 cells, same experiments with TCEP alone or compound 2): near complete depalmitoylation
reduction of palmitoylation level of calnexin (calnexin): 19-40%
SMILES: CCCCCCCCNC(=O)[C@@H](N)CS [compound 1, H2N-L-Cys-Oct]
detection of N-acylated AMD product 4 in lipid extract (LC MS/MS) (HeLa cells): detected the expected AMD product, 4
doses that did not decrease cell viability compared to the nontreated control (INCL lymphoblasts): up to 0.08 μmol/10^7 cells
